The test system of one assay is superior mesenteric artery (contracted by potassium chloride). The assay is described as follows: Vessel Smooth Muscle Relaxation Action (V.R.). The conditions noted are these: Oryctolagus cuniculus; concentration relaxing KCl-contracted strain to 50%; cumulative administration; read-out: V.R. (ED50). The assay is classed as cell-based, rabbit. The text has this: The specimen was suspended by loading a strain in Krebs-Henseleit solution through which an oxygen gas containing 5% carbon dioxide was bubbled. The specimen was contracted by adding potassium chloride to maintain a predetermined strain. Thereafter, a test compound was cumulatively administrated.
Turning to `O=S(=O)(NC(Cc1cnc[nH]1)CN1CCN(c2ccccc2)CC1)c1cccc2cnccc12` (stereo not shown) [Example 2, N-[1-(Imidazol-4(5)-Yl-Methyl)-2-(4-Phenylpiperazinyl)Ethyl]-5-IsoquinolineSulfonamide], the EC50 was found to be 47 µM.
The same measure, in the same setting: then `CN(C(Cc1ccc(O)c(O)c1)CN1CCN(c2ccccc2)CC1)S(=O)(=O)c1cccc2cnccc12` (stereo not shown) [Example 7, N-{1-[(3,4-Dihydroxyphenyl)Methyl]-2-(4-Phenylpiperazinyl)Ethyl}-N-Methyl-Isoquinoline Sulfonamide], with 1.6 µM.
Same read-out and setting: for `O=S(=O)(NC(Cc1ccc(O)c(O)c1)CN1CCN(c2ccccc2)CC1)c1cccc2cnccc12` (stereo not shown) [Example 8, N-{1-[(3,4-Dihydroxyphenyl)Methyl]-2-(4-Phenylpiperazinyl)Ethyl}-5-Isoquinoline Sulfonamide] the value was 1.8 µM; for `O=S(=O)(c1cccc2cnccc12)N1Cc2cc(O)c(O)cc2CC1CN1CCN(c2ccccc2)CC1` (stereo not shown) [Example 10, 6,7-Dihydroxy-2-(5-Isoquinolinesulfonyl)-3-[(4-Phenylpiperazinyl)methyl]-1,2,3,4-tetrahydroisoquinoline], 6.4 µM.
With `Cc1ccc(S(=O)(=O)Nc2ccc(C[C@@H](C(=O)N3CCN(c4ccccc4)CC3)N(C)S(=O)(=O)c3cccc4cnccc34)cc2)cc1` [Example 22, 1-[N-(5-isoquinolinesulfonyl)-N-methyl-p-(p-toluenesulfonylamino)phenylalanyl]-4-phenylpiperazine], the EC50 is 1.8 µM.
Regarding `O=C(CCc1ccccc1)N1CCN(C(=O)[C@H](Cc2ccc(O)cc2)NS(=O)(=O)c2cccc3cnccc23)CC1` [Example 31, 1-[N-(5-isoquinolinesulfonyl)tyrosyl]-4-(3-phenylpropionyl)piperazine], the EC50 came to 24 ± 7 µM.
Still for that read-out and setting: then `O=C([C@H](Cc1ccc(O)cc1)NS(=O)(=O)c1cccc2cnccc12)N1CCN(CCCc2ccccc2)CC1` [Example 33, 1-[N-(5-Isoquinolinesulfonyl)Tyrosyl]-4-(3-Phenylpropyl)Piperazine], with 21 µM; and `O=S(=O)(NC(Cc1ccc(OS(=O)(=O)c2cccc3cnccc23)cc1)CN1CCN(c2ccccc2)CC1)c1cccc2cnccc12` (stereo not shown) [Example 34], with 1.8 µM; and `CN(C(Cc1ccc(OS(=O)(=O)c2cccc3cnccc23)cc1)CN1CCN(c2ccccc2)CC1)S(=O)(=O)c1cccc2cnccc12` (stereo not shown) [Example 35], with 6.9 µM.
Still for that read-out and setting: then `O=S(=O)(NC(Cc1ccc(O)cc1)CN1CCN(c2ccccc2)CC1)c1cccc2cnccc12` (stereo not shown) [Example 37, N-[1-(p-hydroxybenzyl)-2-(4-phenylpiperazinyl)ethyl]-5-isoquinolinesulfonamide], with 4.4 µM; and `COc1ccc(CC(CN2CCN(c3ccccc3)CC2)N(C)S(=O)(=O)c2cccc3cnccc23)cc1` (stereo not shown) [Example 38, N-[1-(P-Methoxybenzyl)-2-(4-Phenylpiperazinyl)Ethyl]-N-Methyl-5-Isoquinolinesulfonamide], with 8.1 µM.
As for `CN(C(Cc1ccc(O)cc1)CN1CCN(c2ncccn2)CC1)S(=O)(=O)c1cccc2cnccc12` (stereo not shown) [Example 42, N-{1-(p-hydroxybenzyl)-2-[4-(2-pyrimidyl)piperazinyl]ethyl}-N-methyl-5-isoquinolinesulfonamide], the EC50 came out at 6.2 µM.
On the same count and under the same terms, then `CN(C(Cc1ccccc1)CN1CCN(c2ccccc2)CC1)S(=O)(=O)c1cccc2cnccc12` (stereo not shown) [Example 43, N-[1-benzyl-2-(4-phenylpiperazinyl)ethyl]-N-methyl-5-isoquinolinesulfonamide], with 0.36 µM; and `CN(C(Cc1ccc(OS(=O)(=O)c2cccc3cnccc23)cc1)CN1CCN(c2ccccn2)CC1)S(=O)(=O)c1cccc2cnccc12` (stereo not shown) [Example 45, N-{1-[p-(5-isoquinolinesulfonyloxy)benzyl]-2-[4-(2-pyridyl)piperazinyl]ethyl}-N-methyl-5-isoquinolinesulfonamide], with 7.5 µM; and `CN(C(Cc1ccc(O)cc1)CN1CCN(c2ccccn2)CC1)S(=O)(=O)c1cccc2cnccc12` (stereo not shown) [Example 46, N-{1-(p-hydroxybenzyl)-2-[4-(2-pyridyl)piperazinyl]ethyl}-N-methyl-5-isoquinolinesulfonamide], with 4 µM.
On to `CN(C(Cc1ccc(O)cc1)CN1CCN(c2cccc(Cl)c2)CC1)S(=O)(=O)c1cccc2cnccc12` (stereo not shown) [Example 47, N-{2-[4-(m-chlorophenyl)piperazinyl]-1-(p-hydroxybenzyl)ethyl}-N-methyl-5-isoquinolinesulfonamide], for which the EC50 stood at 0.39 µM.
Still for that read-out and setting: for `CN(C(Cc1ccc(OS(=O)(=O)c2cccc3cnccc23)cc1)CN1CCN(c2ccc(F)cc2)CC1)S(=O)(=O)c1cccc2cnccc12` (stereo not shown) [Example 49] the value was 0.92 µM; for `Cc1cccc(N2CCN(CC(Cc3ccc(O)cc3)N(C)S(=O)(=O)c3cccc4cnccc34)CC2)c1` (stereo not shown) [Example 51, N-{1-(p-hydroxybenzyl)-2-[4-(m-methylphenyl)piperazinyl]ethyl}-N-methyl-5-isoquinolinesulfonamide], 0.17 µM; for `COc1ccc(N2CCN(CC(Cc3ccc(OS(=O)(=O)c4cccc5cnccc45)cc3)NS(=O)(=O)c3cccc4cnccc34)CC2)cc1` (stereo not shown) [Example 52], 9.9 µM.
Still for that read-out and setting: for `COc1ccc(N2CCN(CC(Cc3ccc(OS(=O)(=O)c4cccc5cnccc45)cc3)N(C)S(=O)(=O)c3cccc4cnccc34)CC2)cc1` (stereo not shown) [Example 53, N-{1-[p-(5-isoquinolinesulfonyloxy)benzyl]-2-[4-(p-methoxyphenyl)piperazinyl]ethyl}-N-methyl-5-isoquinolinesulfonamide] the value was 1.3 µM; for `COc1ccc(N2CCN(CC(Cc3ccc(O)cc3)N(C)S(=O)(=O)c3cccc4cnccc34)CC2)cc1` (stereo not shown) [Example 54, N-{1-(p-hydroxybenzyl)-2-[4-(p-methoxyphenyl)piperazinyl]ethyl}-N-methyl-5-isoquinolinesulfonamide], 1.7 µM; for `COc1ccc(N2CCN(CC(Cc3ccc(O)cc3)NS(=O)(=O)c3cccc4cnccc34)CC2)cc1` (stereo not shown) [Example 55, N-{1-(p-hydroxybenzyl)-2-[4-(p-methoxyphenyl)piperazinyl]ethyl}-5-isoquinolinesulfonamide], 8.6 µM.
The same measure, in the same setting: then `COc1ccccc1N1CCN(CC(Cc2ccc(O)cc2)N(C)S(=O)(=O)c2cccc3cnccc23)CC1` (stereo not shown) [Example 56, N-{1-(p-hydroxybenzyl)-2-[4-(2-methoxyphenyl)piperazinyl]ethyl}-N-methyl-5-isoquinolinesulfonamide], with 1.2 µM; and `CN(C(Cc1ccc(O)cc1)CN1CCN(S(=O)(=O)c2ccccc2)CC1)S(=O)(=O)c1cccc2cnccc12` (stereo not shown) [Example 62, N-{2-[(4-Benzenesulfonyl)Piperazinyl)-1-(P-Hydroxybenzyl)-Ethyl}-N-Methyl-5-Isoquinolinesulfonamide], with 2.3 µM; and `CN(C(Cc1ccc(O)cc1)CN1CCN(C(=O)OCc2ccccc2)CC1)S(=O)(=O)c1cccc2cnccc12` (stereo not shown) [Example 67, N-[2-(4-benzyloxycarbonylpiperazinyl)-1-(p-hydroxybenzyl)ethyl]-N-methyl-5-isoquinolinesulfonamide], with 2.2 µM.
In the case of `COc1ccc(CC(CN2CCN(C(=O)OCc3ccccc3)CC2)N(C)S(=O)(=O)c2cccc3cnccc23)cc1` (stereo not shown) [Example 72, N-[2-(4-benzyloxycarbonylpiperazinyl)-1-(p-methoxybenzyl)ethyl]-N-methyl-5-isoquinolinesulfonamide], the EC50 came out at 4 µM.
Same read-out and setting: for `COc1ccc(CC(CN2CCN(C(=O)OCc3ccccc3)CC2)NS(=O)(=O)c2cccc3cnccc23)cc1` (stereo not shown) [Example 73, N-[2-(4-benzyloxycarbonylpiperazinyl)-1-(p-methoxybenzyl)ethyl]-5-isoquinolinesulfonamide] the value was 14 µM; for `CN(C(Cc1ccc(O)cc1)CN1CCN(C(=O)c2ccccc2)CC1)S(=O)(=O)c1cccc2cnccc12` (stereo not shown) [Example 75, N-[2-(4-Benzoylpiperazinyl)-1-(P-Hydroxybenzyl)Ethyl]-N-Methyl-5-Isoquinolinesulfonamide], 9.7 µM; for `CN(C(Cc1ccc(O)cc1)CN1CCN(S(=O)(=O)Cc2ccccc2)CC1)S(=O)(=O)c1cccc2cnccc12` (stereo not shown) [Example 76, N-[2-(4-benzylsulfonylpiperazinyl)-1-(p-hydroxybenzyl)ethyl]-N-methyl-5-isoquinolinesulfonamide], 2.9 µM.
Still for that read-out and setting: for `CN(C(Cc1ccc(O)cc1)CN1CCN(S(=O)(=O)c2cccc3cnccc23)CC1)S(=O)(=O)c1cccc2cnccc12` (stereo not shown) [Example 77, N-{1-(p-hydroxybenzyl]-2-[4-(5-isoquinolinesulfonyl)piperazinyl]ethyl}-N-methyl-5-isoquinolinesulfonamide] the value was 1.4 µM; for `CN(C(Cc1ccc(OS(=O)(=O)c2cccc3ccccc23)cc1)CN1CCN(C(=O)OCc2ccccc2)CC1)S(=O)(=O)c1cccc2ccccc12` (stereo not drawn) [Example 78, N-{2-(4-benzyloxycarbonylpiperazinyl)-1-[p-(α-naphtharenesulfonyloxy)benzyl]ethyl}-N-methyl-α-naphtharenesulfonamide], 1.8 µM.
Still for that read-out and setting: for `CN(C(Cc1ccc(O)cc1)CN1CCN(C(=O)OCc2ccccc2)CC1)S(=O)(=O)c1cccc2ccccc12` (stereo not drawn) [Example 79, N-[2-(4-benzyloxycarbonylpiperazinyl)-1-(p-hydroxybenzyl)ethyl]-N-methyl-α-naphtharenesulfonamide] the value was 5.5 µM; for `CN(C(Cc1ccc(OS(=O)(=O)c2cccc3cnccc23)cc1)CN1CCCN(c2ccccc2)CC1)S(=O)(=O)c1cccc2cnccc12` (stereo not shown) [Example 81, N-{1-[p-(5-isoquinolinesulfonyloxy)benzyl]-2-(4-phenylhomopiperazinyl)ethyl}-N-methyl-5-isoquinolinesulfonamide], 1.7 µM.

The same assay, now with this note: concentration relaxing KCl-contracted strain to 50%; cumulative administration; read-out: V.R. (ED50).
On to `O=S(=O)(NC(Cc1ccc(O)cc1)CN1CCN(CCCc2ccccc2)CC1)c1cccc2cnccc12` (stereo not shown) [Example 69, N-{1-(p-hydroxybenzyl)-2-[4-(3-phenylpropyl)piperazinyl]ethyl}-5-isoquinolinesulfonamide], for which the EC50 was found to be 14 µM.

(Values after patent publication US5245034A, “Compound having vessel smooth muscle relaxation activity” (Hidaka; Kiroyoshi, priority 1988, dated 1993).)
